From patent US8293786B2 (Alltranz Inc., priority 2007, dated 2012)

How the values were obtained:
human abdominal skin = test: In vitro human skin permeation and skin disposition, flow-through diffusion cells (Examples 2, 2A, 2B); format: in vitro ADME; details: for 42 h cumulative amt / Flux / Lag time / 42 h skin conc / Flux enhancement: Table 16, 60/40 Hanks'/PEG 400 receiver fluid; for 42 h cumulative amt / Flux / Lag time / 42 h skin conc / Flux enhancement / 30 h skin conc: 90:8:2 PG:H2O:IPM donor solution; for Flux enhancement: total cannabidiol versus cannabidiol; for detected in the skin as / flux compared to cannabidiol / lag time compared to cannabidiol / permeated through the skin as / total skin concentrations compared to cannabidiol: in donor solution; for 30 h skin conc: Table 17, 40% aqueous PEG 400 receiver fluid
Protocol: Flow through diffusion cells were used for the permeation studies. HEPES-buffered Hanks' balanced salts containing 40% PEG 400 with gentamicin or 40% aqueous PEG 400 with gentamicin were used for the receiver compartment. Donor solution was comprised of 90:8:2 PG:H2O:IPM solution or gel formulation. […] Drug accumulation in the skin after a 24, 30 or 42 h diffusion experiment was determined as μmol/g wet tissue weight.
The skin samples used in the following experiments were obtained from abdominal reduction surgery and dermatomed to a thickness of approximately 200 μm. The skin samples used herein were frozen at −20° C. for less than six months.
One (1) L of receiver fluid was prepared by measuring 1 L of nanopure water into a graduated cylinder. 90% of the water was added to an Erlenmeyer flask. Hanks' salts (1 bottle) were added to the water along with 5.96 g of HEPES and 0.35 g of sodium bicarbonate. The pH of the solution was adjusted with 1 N sodium hydroxide solution to pH 7.4. The remaining water was added and the receiver fluid was filtered through a 0.2μ filter (Millipore, Billerica, Mass.). Fifty (50) mg of gentamicin was added to the filtered receiver fluid and 400 mL of the receiver fluid was removed and replaced with 400 mL of PEG 400.
The receiver fluid was prepared by measuring 600 mL of nanopure H2O into a graduated cylinder. The H2O was filtered through a 0.2μ filter (Millipore, Billerica, Mass.). Fifty (50) mg of gentamicin was added to the filtered H2O and 400 mL of PEG 400 was added.
The prodrugs were made up in a solution of 45:4:1 PG:H2O:IPM. For this solution, the appropriate amount of drug was weighed into a glass silanized culture tube and IPM was added, the 50 μL of PG to coat the drug, then an additional 247 μL PG was added and the donor solution was vortexed again. Finally 26 μL of water was added. The gel formulation resulted from the mixing of absolute ethanol, nanopure water, IPM, Carbopol® 980, 0.1 N sodium hydroxide solution and the respective drug.
The gel formulation was comprised of absolute ethanol, nanopure water, IPM, Carbopol® 980, 0.1 sodium hydroxide solution and respective drug. The anhydrous gel was comprised of absolute ethanol, PEG monoethyl ether 550, Klucel® hydroxypropylcellulose, and respective drug.
Dermatomed skin harvested from abdominoplasty, stored at −20° C., was used for the experiments. A PermeGear flow-through (In-Line, Hellertown, Pa.) diffusion cell system was used for the skin permeation studies.
Diffusion cells were kept at 32° C. with a circulating water bath. Human epidermal skin was arranged in the diffusion cell with stratum corneum (upper layer of skin) facing the donor compartment. The permeation area of the skin was 0.95 cm^2. The data was collected from a human skin donor with three diffusion cells per treatment.
The receiver solution was HEPES-buffered Hanks' balanced salts with gentamicin containing 40% PEG 400 at a pH of 7.4 or 40% aqueous PEG 400 and flow rate was adjusted to 0.8 mL/h. Each cell was charged with 0.10 mL of the respective drug formulation (donor solution) or 50 μL of gel formulation which was rubbed into the skin for 15 sec with a Teflon coated rod. The formulation was applied to ensure complete coverage. […]. Diffusion cells were covered with a stopper or cap for the duration of the study.
Samples were collected into scintillation vials in 3 h increments for either 24, 30, or 42 h. All the samples were stored at 4° C. until extracted. An aliquot (0.5 mL) of the diffusion sample was placed into a silanized HPLC vial and 0.5 mL of acetonitrile was added to the sample, capped and vortexed.
At the end of the experiment, the skin tissue was removed from the diffusion cell, rinsed with nanopure water, and blotted dry with a paper towel. The skin was tape stripped twice using book tape (Scotch™, 3M, St. Paul, Minn.) to remove drug formulation adhering to the tissue surface.

[1] = Plasma stability of cannabidiol prodrugs (bioconversion to parent drug); format: in vitro ADME; details: Table 20; for % Prodrug at time (h): mono-prodrug in plasma; for % mono-prodrug at time (h) / % Di-prodrug at time (h): di-prodrug in plasma; for % mono-prodrug at time (h): mono-prodrug formed
Protocol: An approximated 1 mg/mL stock solution of each prodrug was prepared in 100 μL of ethanol and 900 μL of acetonitrile. Ten (10) μL of stock was spiked into 1 mL of plasma and vortexed. The samples were kept sealed in an amber vial and samples were obtained to analyze for bioconversion to parent drug.

[2] = as applied compound (CBD or intact prodrug)
[3] = prodrug applied, as total cannabidiol equivalents
[4] = mono-prodrug (ALL00131) from applied di-prodrug

Compound	42 h cumulative amt (human abdominal skin; CBD from applied prodrug) [nmol]	Flux (human abdominal skin; CBD from applied prodrug) [nmol/cm^2/h]	Lag time (human abdominal skin; CBD from applied prodrug) [h]	42 h cumulative amt (human abdominal skin; [2]) [nmol]	42 h skin conc (human abdominal skin; [2]) [µmol/g]	Flux (human abdominal skin; [2]) [nmol/cm^2/h]	Lag time (human abdominal skin; [2]) [h]	42 h cumulative amt (human abdominal skin; [3]) [nmol]	42 h skin conc (human abdominal skin; [3]) [µmol/g]	Flux (human abdominal skin; [3]) [nmol/cm^2/h]	Lag time (human abdominal skin; [3]) [h]	Flux enhancement (human abdominal skin)	detected in the skin as (human abdominal skin)	flux compared to cannabidiol (human abdominal skin)	lag time compared to cannabidiol (human abdominal skin)	permeated through the skin as (human abdominal skin)	total skin concentrations compared to cannabidiol (human abdominal skin)	% Prodrug at time (h) ([1]; 0 h) [%]	% Prodrug at time (h) ([1]; 1 h) [%]	% Prodrug at time (h) ([1]; 24 h) [%]	other results
C=C(C)[C@@H]1CCC(C)=C[C@H]1c1c(O)cc(CCCCC)cc1OC(=O)COCCOCCOCCOC [ALL00131, CBD 3,6,9,12-tetraoxatridecanoate]	15.4 ± 2.0	0.6 ± 0.1	9.6 ± 3.0	54.9 ± 22.1	12.5 ± 5.5	2.3 ± 0.8	13.7 ± 1.9	70.3 ± 20.4	12.5 ± 5.5	2.8 ± 0.7	12.9 ± 1.6	0.43	only as prodrug	did not increase the flux	similar	intact prodrug and cannabidiol	not higher	100	64	14	% Prodrug at time (h) ([1]; 2 h): 42%; % Prodrug at time (h) ([1]; 4 h): 24%; % Prodrug at time (h) ([1]; 6 h): 14%
C=C(C)[C@@H]1CCC(C)=C[C@H]1c1c(OC(=O)COCCOCCOCCOC)cc(CCCCC)cc1OC(=O)COCCOCCOCCOC [ALL00132, CBD di(3,6,9,12-tetraoxatridecanoate)]	10.0 ± 0.4	0.4 ± 0.1	11.8 ± 4.2	26.4 ± 17.0	2.9 ± 1.3	1.4 ± 0.4	19.2 ± 4.9	59.5 ± 23.8	3.5 ± 1.7	2.6 ± 0.5	14.9 ± 3.8	0.40	prodrug and small amounts as mono-substituted prodrug, ALL00131	did not increase the flux	wasn't decreased	intact prodrug, mono-substituted prodrug (ALL00131), and cannabidiol	not higher	–	–	–	42 h cumulative amt (human abdominal skin; [4]): 23.0 ± 7.1 nmol; 42 h skin conc (human abdominal skin; [4]): 0.6 ± 0.1 µmol/g; Flux (human abdominal skin; [4]): 0.8 ± 0.2 nmol/cm^2/h; Lag time (human abdominal skin; [4]): 9.1 ± 3.3 h; % mono-prodrug at time (h) ([1]; 1 h): 52%; % mono-prodrug at time (h) ([1]; 2 h): 44%; % mono-prodrug at time (h) ([1]; 4 h): 24%; % mono-prodrug at time (h) ([1]; 6 h): 15%; % mono-prodrug at time (h) ([1]; 24 h): 2%; % Di-prodrug at time (h) ([1]; 0 h): 100%; % Di-prodrug at time (h) ([1]; 1 h): 28%; % Di-prodrug at time (h) ([1]; 2 h): 15%; % Di-prodrug at time (h) ([1]; 4 h): 0%; % Di-prodrug at time (h) ([1]; 6 h): 0%; % Di-prodrug at time (h) ([1]; 24 h): 0%
C=C(C)[C@@H]1CCC(C)=C[C@H]1c1c(O)cc(CCCCC)cc1OC(=O)[C@@H](O)CO [ALL00137, CBD (S)-2,3-dihydroxypropanoate]	–	–	–	–	–	–	–	–	–	–	–	–	prodrug and trace amounts of cannabidiol	–	–	did not permeate through the skin or was below detection in the receiver samples	not higher	89	73	4	30 h skin conc (human abdominal skin; CBD from applied prodrug): 0.3 ± 0.0 µmol/g; 30 h skin conc (human abdominal skin; [2]): 0.9 ± 0.3 µmol/g; 30 h skin conc (human abdominal skin; [3]): 1.0 ± 0.5 µmol/g; % Prodrug at time (h) ([1]; 3 h): 60%
C=C(C)C1CCC(C)=CC1c1c(O)cc(CCCCC)cc1OC(=O)COCCOCCOC (stereo not drawn) [ALL00140, CBD 2-[2-(2-methoxyethoxy)ethoxy]acetate]	24.1 ± 3.3	0.9 ± 0.1	9.0 ± 2.7	34.3 ± 15.5	12.7 ± 6.6	1.3 ± 0.5	12.6 ± 2.5	58.1 ± 15.5	13.2 ± 6.9	2.2 ± 0.5	11.2 ± 2.2	0.33	mostly as prodrug in the skin with small amounts of cannabidiol	did not increase the flux	slightly decreased	intact prodrug and cannabidiol	not higher	100	–	0	42 h skin conc (human abdominal skin; CBD from applied prodrug): 0.5 ± 0.3 µmol/g; % Prodrug at time (h) ([1]; 2 h): 0%; % Prodrug at time (h) ([1]; 20 h): 0%
